Reference: ChEMBL document CHEMBL5729193, “Aromatic vinyl or aromatic ethyl derivative, preparation method therefor, intermediate, pharmaceutical composition, and application” (2022)

biological target: Programmed cell death protein 1/Programmed cell death 1 ligand 1 (Homo sapiens, UniProt Q15116+Q9NZQ7); test: Homogenouse Time-Resolved Fluorescence (HTRF) Binding Assay: Experimental Procedure1. The compound was formulated to 10 concentrations with a three-fold concentration gradient with 100% DMSO.2. The solution of the compound in DMSO was added to Dilute Buffer, and mixed evenly and then transferred to a 96-well plate.3. PD-L1 was diluted with Dilute Buffer and added to the 96-well plate above.4. PD-1 was diluted with Dilute Buffer, then added to the 96-well plate above and incubated at room temperature for 30 minutes.5. One portion of anti-tag1-Eu and one portion of anti-tag2-XL665 were added to Detection Buffer, mixed evenly and transferred to the 96-well plate above.6. The mixed solution in the 96-well plate were incubated at room temperature for 1 to 24 hours.7. HTRF values were read by Envision.; format: protein-complex assay
Sequence (Q15116 whole entry): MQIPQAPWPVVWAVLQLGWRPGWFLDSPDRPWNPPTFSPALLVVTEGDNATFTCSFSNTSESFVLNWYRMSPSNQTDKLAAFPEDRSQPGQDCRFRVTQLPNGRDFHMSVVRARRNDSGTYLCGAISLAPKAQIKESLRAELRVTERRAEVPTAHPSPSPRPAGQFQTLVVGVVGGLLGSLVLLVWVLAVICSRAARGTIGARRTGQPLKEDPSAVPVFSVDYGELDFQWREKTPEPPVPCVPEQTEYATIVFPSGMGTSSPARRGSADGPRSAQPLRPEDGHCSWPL
Sequence (Q9NZQ7 whole entry): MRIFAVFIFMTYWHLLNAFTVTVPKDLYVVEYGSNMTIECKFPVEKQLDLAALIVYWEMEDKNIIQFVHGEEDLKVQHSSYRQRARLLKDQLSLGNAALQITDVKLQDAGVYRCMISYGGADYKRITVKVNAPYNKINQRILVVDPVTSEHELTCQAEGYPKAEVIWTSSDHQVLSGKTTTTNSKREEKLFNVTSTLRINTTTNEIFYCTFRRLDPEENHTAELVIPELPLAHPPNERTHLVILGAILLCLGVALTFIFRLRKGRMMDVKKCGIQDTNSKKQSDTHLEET

How did the IC50 turn out when `Cc1c(/C=C/c2cc(CN[C@@](C)(CO)C(=O)O)ccc2C(F)(F)F)cccc1-c1ccccn1` was run?
The IC50 was 2200 nM.

For `Cc1c(/C=C/c2cc(CNC(CO)C(=O)O)ccc2C(F)(F)F)cccc1-c1ccccc1F` (configuration not stated), which IC50 is on record?
Its IC50 is 13 nM.

For `Cc1c(CCc2cc(CNC(C)C(=O)O)ccc2C(F)(F)F)cccc1-c1ccccc1` (configuration not stated), which IC50 is on record?
Its IC50 is 44 nM.

For `Cc1c(/C=C/c2cc(CNC(C)(CO)C(=O)O)ccc2C(F)(F)F)cccc1-c1ccc(F)cc1` (configuration not stated), which IC50 is on record?
Its IC50 is 320 nM.

`Cc1c(/C=C/c2cc(CN[C@@](C)(CO)C(=O)O)ccc2C(F)(F)F)cccc1-c1cnccn1` was tested. Which IC50 did it give?
The IC50 was 540 nM.

`Cc1ccc(CNC(C)(CO)C(=O)O)cc1/C=C/c1cccc(-c2cccc(F)c2)c1C` (configuration not stated) was tested. Which IC50 did it give?
Its IC50 is 57 nM.

Which IC50 does the source give for `Cc1c(/C=C/c2cc(CN[C@@](C)(CO)C(=O)O)ccc2C(F)(F)F)cccc1-c1ccc2ncoc2c1` here?
The IC50 was 1100 nM.

Which IC50 does the source give for `Cc1c(CCc2cc(CNC(C)(CO)C(=O)O)ccc2C(F)(F)F)cccc1-c1ccccc1` (configuration not stated) here?
The IC50 was 85 nM.

For `Cc1ccc(CNC(C)(CO)C(=O)O)cc1/C=C/c1cccc(-c2ccc(F)cc2)c1C` (configuration not stated), which IC50 is on record?
The IC50 was 1400 nM.

How did the IC50 turn out when `Cc1c(/C=C/c2cc(CN[C@@](C)(CO)C(=O)O)ccc2C(F)(F)F)cccc1-c1ccc2cn(C)nc2c1` was run?
Its IC50 is 880 nM.

How did the IC50 turn out when `Cc1c(/C=C/c2cc(CNC(C)(CO)C(=O)O)ccc2C(F)(F)F)cccc1-c1cccc(F)c1` (configuration not stated) was run?
Its IC50 is 46 nM.

How did the IC50 turn out when `Cc1c(/C=C/c2cc(CN[C@@](C)(CO)C(=O)O)ccc2C(F)(F)F)cccc1-c1cccnc1` was run?
The IC50 was 580 nM.

With `Cc1c(/C=C/c2cc(CNC(C)(CO)C(=O)O)ccc2C(F)(F)F)cccc1-c1ccccc1F` (configuration not stated) as the compound, how does the IC50 read?
The IC50 was 20 nM.

With `COc1ccc(-c2cccc(/C=C/c3cc(CNC(C)(CO)C(=O)O)ccc3C)c2C)cc1` (configuration not stated) as the compound, how does the IC50 read?
The IC50 was 3100 nM.

For `Cc1c(/C=C/c2cc(C(C)NCC(=O)O)ccc2C(F)(F)F)cccc1-c1ccccc1` (configuration not stated), which IC50 is on record?
The IC50 was 24 nM.

`Cc1c(CCc2cc(CNC(CO)C(=O)O)ccc2C(F)(F)F)cccc1-c1ccccc1` (configuration not stated) was tested. Which IC50 did it give?
The IC50 was 46 nM.

`Cc1c(/C=C/c2cc(CNC(CO)C(=O)O)ccc2C(F)(F)F)cccc1-c1ccc2c(c1)OCCO2` (configuration not stated) was tested. Which IC50 did it give?
The IC50 was 14 nM.
